4 compounds from patent US8367873B2, “Phenyl-substituted bicyclooctane-1,3-dione derivatives” (Bayer Cropscience AG, priority 2008, dated 2013) can be followed below.

What all share (assay type): in vivo
Assay [1] relates to cereals. The assay can be described thus: Container trials with cereals in the greenhouse, use of safeners (Mefenpyr 1 day prior to herbicide application). The protocol:
Seeds of monocotylidonous and dicotylidonous weed and crop plants are placed in sandy loam in wood fibre pots, covered with soil and cultivated in a greenhouse under good growth conditions. Two to three weeks after sowing, the test plants are treated at the one-leaf stage. The test compounds, formulated as wettable powders (WP), are then with a water application rate of 600 l/ha (converted), with 0.2% of wetting agent added, sprayed onto the green parts of the plants in different amounts. After the test plants have been kept in the greenhouse under optimum growth conditions for about three weeks, the effect of the preparations is assessed visually in comparison to untreated controls (herbicidal effect in percent: 100% effect=the plants have died, 0% effect=like control plants).
If it is to be additionally tested as to whether safeners can improve the plant compatibility of test substances in the case of crop plants, the following options are used for applying the safeners: • Seeds of the crop plants are, before sowing, dressed with safener substance (the amount of safener stated in percent, based on the weight of the seed) • Before the application of the test substances, the crop plants are sprayed with the safener at a certain application rate per hectare (usually one day before the application of the test substances) • The safener is applied together with the test substance as a tank mix (the amount of safener stated in g/ha or as a ratio, based on the herbicide).
Container Trials with Cereals in the Greenhouse

In assay [2] the test system is Setaria viridis. The assay can be described thus: Herbicidal pre-emergence action. To be noted: pre-emergence method, 80 g/ha, greenhouse, visual assessment vs untreated controls. Summed up: (§1)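 Visual percent effect relative to untreated controls (0% = like control, 100% = dead) assessed three weeks after treatment in the greenhouse. Compounds, as wettable powders in water (600 l/ha, 0.2% wetting agent), were sprayed at different amounts onto covering soil over seeds sown in sandy loam.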

The test system of assay [3] is Echinocloa crus-galli. The assay can be described thus: Herbicidal pre-emergence action. To be noted: pre-emergence method, 80 g/ha, greenhouse, visual assessment vs untreated controls. Put shortly: as §1
Assay [4] concerns Alopecurus myosuroides. The assay can be described thus: Herbicidal pre-emergence action. To be noted: pre-emergence method, 80 g/ha, greenhouse, visual assessment vs untreated controls. Summed up:
as §1

The test system of assay [5] is Lolium multiflorum. Description: Herbicidal pre-emergence action. To be noted: pre-emergence method, 80 g/ha, greenhouse, visual assessment vs untreated controls. Summed up: as §1
The subject of assay [6] is Setaria viridis. Description: Herbicidal post-emergence action. To be noted: post-emergence method; for herbicidal effect against SETVI (Setaria viridis): 80 g/ha. Summed up:
(§2)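 Greenhouse-grown weeds were treated post-emergence at the one-leaf stage, two to three weeks after sowing in sandy loam. Compounds formulated as WP were sprayed at various rates in 600 l/ha water with 0.2% wetting agent. Damage was scored visually after about three weeks versus untreated controls (0% = like control, 100% = dead).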

Assay [7] relates to Echinocloa crus-galli. Description: Herbicidal post-emergence action. The conditions noted are these: post-emergence method; for herbicidal effect against ECHCG (Echinochloa crus-galli): 80 g/ha. Summed up:
as §2

The test system of assay [8] is Alopecurus myosuroides. The assay can be described thus: Herbicidal post-emergence action. The conditions noted are these: post-emergence method; for herbicidal effect against ALOMY (Alopecurus myosuroides): 80 g/ha. Summed up:
as §2

The test system of assay [9] is Lolium multiflorum. Description: Herbicidal post-emergence action. The conditions noted are these: post-emergence method; for herbicidal effect against LOLMU (Lolium multiflorum): 80 g/ha. Summed up:
as §2

For assay [10], the system named is monocotylidonous and dicotylidonous weed and crop plants. Description: Herbicidal post-emergence action (other test plants). To be noted: post-emergence method; for herbicidal effect against AVEFA (Avena fatua): 80 g/ha. Put shortly: as §2
Assay [11] has the same test system. Description: Herbicidal pre-emergence action (other test plants). The conditions noted are these: pre-emergence method, 80 g/ha, greenhouse, visual assessment vs untreated controls. Summed up:
as §1

[12] abbreviates: 28 days after application, 12.5 g of a.i./ha.
Setting [13] is: 28 days after application, 25 g of a.i./ha.
[14] abbreviates: 28 days after application, 50 g of a.i./ha.
[15] abbreviates: 28 days after application, 100 g of a.i./ha.

With `CCc1cc(C)cc(CC)c1C1=C(O)[C@H]2CC3(C[C@H]2C1=O)OCC=CCO3` (relative stereo) [I-a-14], the “Summer barley observed (%)” value was 5% in assay [1] (setting [12]), 8% in assay [1] (setting [13]), 10% in [1] (setting [14]) and 20% in [1] (setting [15]). The “Summer wheat observed (%)” value in [1] (10 days after application, 12.5 g of a.i./ha) amounted to 50%; in assay [1] (10 days after application, 25 g of a.i./ha), 60%; in assay [1] (10 days after application, 50 g of a.i./ha), 60%; in assay [1] (setting [12]), 10%; in [1] (setting [13]), 30%; in assay [1] (setting [14]), 30%. In assay [1] (setting [15]), the “Summer wheat observed (%)” value is listed as 70%. Moreover, the “herbicidal effect SETVI” value in assay [2] is listed as 90%. In addition, the “herbicidal effect ECHCG” value in assay [3] was found to be 100%. Moreover, the “herbicidal effect ALOMY” value in [4] is reported as 100%. The “herbicidal effect LOLMU” value in assay [5] is reported as 100%. Also, the “herbicidal effect against SETVI (Setaria viridis)” value (“herbicidal effect against SETVI” for short) in [6] stood at 100%. The “herbicidal effect against ECHCG (Echinochloa crus-galli)” value (“herbicidal effect against ECHCG” below) in assay [7] is listed as 100%. Also, in assay [8], the “herbicidal effect against ALOMY (Alopecurus myosuroides)” value (“herbicidal effect against ALOMY” for short) worked out at 90%. In addition, the “herbicidal effect against LOLMU (Lolium multiflorum)” value (from here on “herbicidal effect against LOLMU”) in [9] was found to be 100%. Also, in assay [10], the “herbicidal effect against AVEFA (Avena fatua)” value (from here on “herbicidal effect against AVEFA”) worked out at 90%. Moreover, the “herbicidal effect AVEFA” value in [11] came to 80%.

`CCc1cc(C)cc(CC)c1C1=C(O)[C@H]2CC3(C[C@H]2C1=O)OCC(C)CO3` (relative stereo) [I-a-25]: the “Summer barley observed (%)” value turned out to be 60% in assay [1] (setting [14]) and 85% in [1] (setting [15]). In addition, the “Summer wheat observed (%)” value in assay [1] (setting [12]) is reported as 10%; in assay [1] (setting [13]), 30%; in [1] (setting [14]) it was 70%; in assay [1] (setting [15]) it was 85%. The “herbicidal effect SETVI” value in assay [2] is reported as 90%. Further, the “herbicidal effect ECHCG” value in assay [3] was 90%. Further, the “herbicidal effect ALOMY” value in assay [4] is 100%. In addition, the “herbicidal effect LOLMU” value in assay [5] stood at 100%. Moreover, the “herbicidal effect against SETVI” value in assay [6] is reported as 100%. In addition, the “herbicidal effect against ECHCG” value in assay [7] is 100%. Moreover, the “herbicidal effect against ALOMY” value in assay [8] is on record as 100%. Further, in [9], the “herbicidal effect against LOLMU” value was 100%. The “herbicidal effect against AVEFA” value in assay [10] worked out at 100%. For the same compound, the “herbicidal effect AVEFA” value in [11] worked out at 70%.

Consider `CCc1cc(C)cc(CC)c1C1=C(O)[C@H]2C[C@]3(COC(C)(C)O3)C[C@H]2C1=O` [I-a-2], for which the “Summer wheat observed (%)” value in assay [1] (setting [12]) came to 40%; in assay [1] (setting [13]), 50%; in assay [1] (setting [14]) it was 60%. In addition, in [2], the “herbicidal effect SETVI” value was 50%. The “herbicidal effect ECHCG” value in assay [3] was 90%. Also, the “herbicidal effect ALOMY” value in [4] came to 90%. Besides, the “herbicidal effect LOLMU” value in [5] worked out at 100%. For the same compound, the pest or weed control at 80 g/ha in assay [6] (Setaria viridis, 504 h, read-out: herbicidal effect against SETVI (Setaria viridis)) turned out to be 90%; in assay [7] (Echinochloa crus-galli, 504 h, read-out: herbicidal effect against ECHCG (Echinochloa crus-galli)), 100%; in assay [8] (Alopecurus myosuroides, 504 h, read-out: herbicidal effect against ALOMY (Alopecurus myosuroides)) it was 100%; in [9] (Lolium multiflorum, 504 h, read-out: herbicidal effect against LOLMU (Lolium multiflorum)), 100%; in [10] (504 h, Avena fatua, read-out: herbicidal effect against AVEFA (Avena fatua)), 70%. The “herbicidal effect AVEFA” value in [11] amounted to 50%.

For the compound `CCOC(=O)OC1=C(c2c(CC)cc(C)cc2CC)C(=O)[C@@H]2CC3(C[C@H]12)OCCCCO3` (relative stereo) [I-c-9], the “Summer wheat observed (%)” value in assay [1] (setting [13]) was 30%; in assay [1] (setting [14]), 40%; in assay [1] (setting [15]), 50%. For the same compound, the “herbicidal effect SETVI” value in [2] is 70%. Besides, in assay [3], the “herbicidal effect ECHCG” value is 100%. Besides, the “herbicidal effect ALOMY” value in assay [4] is reported as 100%. For the same compound, the “herbicidal effect LOLMU” value in assay [5] is 100%. Further, the “herbicidal effect against SETVI” value in [6] is given as 90%. Moreover, the “herbicidal effect against ECHCG” value in assay [7] came out at 100%. Besides, the “herbicidal effect against ALOMY” value in assay [8] is on record as 90%. In addition, the “herbicidal effect against LOLMU” value in [9] is 100%. For the same compound, in [10], the “herbicidal effect against AVEFA” value came to 80%. In addition, in assay [11], the “herbicidal effect AVEFA” value is on record as 70%.
